In patent publication US10703733B2, “MCL-1 inhibitors” (Gilead Sciences, Inc., priority 2018, dated 2020):
Where two headings read alike, the source gives them in different places.

Tests used:
SKBR3 cells = test: SKBR3 Cell Viability Assay (CellTiter Glo); type: cell-based; conditions: CellTiter Glo luminescence, read-out: MCL-1 CV SKBR3 EC50
Outline: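 Viability read as CellTiter Glo luminescence after 72 h of compound exposure at 37° C./5% CO2, using 6,000 SKBR3 cells per well in McCoy 5A with 10% FBS. Percent inhibition scaled between DMSO wells and 10 μM puromycin wells.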

[1] = target: MCL-1/Bim interaction (recombinant human MCL-1 protein, residues 171-327; biotinylated human Bim peptide, residues 51-76) (Homo sapiens (Human), UniProt Q07820); test: MCL-1/Bim Binding AlphaLISA Assay; conditions: 0.0625 nM 6xHis-Mcl-1 (171-327), 0.0625 nM biotinylated-Bim peptide
Outline: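 Protein 0.0625 nM + cpd, 1 h; add biotin-Bim 0.0625 nM, 2 h; acceptor beads 1 h; donor beads 1 h; AlphaScreen read. Buffer 20 mM Hepes pH 7.5, 150 mM NaCl, 1 mM DTT.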

Chain of MCL-1/Bim interaction (recombinant human MCL-1 protein, residues 171-327; biotinylated human Bim peptide, residues 51-76) (Q07820 171-327): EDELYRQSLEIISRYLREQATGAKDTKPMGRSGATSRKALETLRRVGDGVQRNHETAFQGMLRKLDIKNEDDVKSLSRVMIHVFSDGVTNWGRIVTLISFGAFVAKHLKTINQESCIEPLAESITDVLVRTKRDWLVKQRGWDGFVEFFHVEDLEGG

| Structure (SMILES) | EC50 (SKBR3 cells; 72 hours) [nM] | IC50 [1] [nM] | EC50 (SKBR3 cells; Homo sapiens, SK-BR-3, 72 h) [nM] |
| --- | --- | --- | --- |
| CO[C@H]1/C=C/CCC[S@](N)(=O)=NC(=O)c2ccc3c(c2)N(C[C@@H]2CC[C@H]21)C[C@@]1(CCCc2cc(Cl)ccc21)CO3 [Example 6] | 8730 | 27.3 |  |
| COc1nn(C)cc1C(=O)N[S@@]1(=O)=NC(=O)c2ccc3c(c2)N(C[C@@H]2CC[C@H]2[C@@H](OC)/C=C/[C@H](OC)CC1)C[C@@]1(CCCc2cc(Cl)ccc21)CO3 [Example 392] |  | 0.07 | 142 |
| CO[C@H]1/C=C/C[C@H](C)C[S@@](=O)(NC(=O)N[C@@H]2CC23CCOC3)=NC(=O)c2ccc3c(c2)N(C[C@@H]2CC[C@H]21)C[C@@]1(CCCc2cc(Cl)ccc21)CO3 (single isomer, unassigned) [Example 342] |  | 0.029 | 33.6 |
| CO[C@H]1/C=C/C[C@H](C)C[S@@](=O)(NC(=O)N[C@H]2C[C@@H](COC(=O)N(C)C)C2)=NC(=O)c2ccc3c(c2)N(C[C@@H]2CC[C@H]21)C[C@@]1(CCCc2cc(Cl)ccc21)CO3 [Example 336] |  | 0.1 | 60.4 |
| COc1nn(C)cc1C(=O)N[S@@]1(=O)=NC(=O)c2ccc3c(c2)N(C[C@@H]2CC[C@H]2[C@@H](OC)CC[C@H](O)[C@H](C)C1)C[C@@]1(CCCc2cc(Cl)ccc21)CO3 [Example 298] |  | 0.016 | 71.9 |
| COc1c(C(=O)N[S@@]2(=O)=NC(=O)c3ccc4c(c3)N(C[C@@H]3CC[C@H]3[C@@H](OC)/C=C/C[C@H](C)C2)C[C@@]2(CCCc3cc(Cl)ccc32)CO4)cn2c1C[C@@H](OC)C2 [Example 224] |  | 0.195 | 83.5 |
| CO[C@H]1/C=C/C[C@H](C)C[S@@](=O)(NC(=O)c2cnn(C(C)C)c2)=NC(=O)c2ccc3c(c2)N(C[C@@H]2CC[C@H]21)C[C@@]1(CCCc2cc(Cl)ccc21)CO3 [Example 123] |  | 0.071 | 114 |
| CO[C@H]1/C=C/C[C@H](C)C[S@@](=O)(NC(=O)N[C@H]2C[C@@](C)(O)C2)=NC(=O)c2ccc3c(c2)N(C[C@@H]2CC[C@H]21)C[C@@]1(CCCc2cc(Cl)ccc21)CO3 [Example 186] |  | 0.066 | 168 |
| CO[C@H]1/C=C/CCC[S@@](=O)(NC(=O)CCc2nnc(C)s2)=NC(=O)c2ccc3c(c2)N(C[C@@H]2CC[C@H]21)C[C@@]1(CCCc2cc(Cl)ccc21)CO3 [Example 102] |  | 0.3 | 891 |
| CO[C@H]1/C=C/C[C@H](C)C[S@@](=O)(NC(=O)N[C@H]2C[C@H](COC(=O)N(C)C)C2)=NC(=O)c2ccc3c(c2)N(C[C@@H]2CC[C@H]21)C[C@@]1(CCCc2cc(Cl)ccc21)CO3 [Example 335] |  | 0.235 | 66.2 |
| CO[C@H]1/C=C/C[C@H](C)C[S@@](=O)(NC(=O)c2ccn(C)c2)=NC(=O)c2ccc3c(c2)N(C[C@@H]2CC[C@H]21)C[C@@]1(CCCc2cc(Cl)ccc21)CO3 [Example 147] |  | 0.051 | 111 |
| CO[C@H]1/C=C/CCC[S@@](=O)(NC(=O)CCn2nccc2C)=NC(=O)c2ccc3c(c2)N(C[C@@H]2CC[C@H]21)C[C@@]1(CCCc2cc(Cl)ccc21)CO3 [Example 56] |  | 0.6 | 1180 |
| CO[C@H]1/C=C/C[C@H](C)C[S@@](=O)(NC(=O)c2cc3n(c2)C(=O)CCC3)=NC(=O)c2ccc3c(c2)N(C[C@@H]2CC[C@H]21)C[C@@]1(CCCc2cc(Cl)ccc21)CO3 [Example 145] |  | 0.037 | 147 |
| CO[C@H]1/C=C/C[C@H](C)[C@@H](C)[S@@](=O)(NC(=O)c2cnn(C)c2)=NC(=O)c2ccc3c(c2)N(C[C@@H]2CC[C@H]21)C[C@@]1(CCCc2cc(Cl)ccc21)CO3 [Example 138] |  | 0.112 | 60.5 |
| CO[C@H]1/C=C/CCC[S@@](=O)(NC(=O)CCc2ncccn2)=NC(=O)c2ccc3c(c2)N(C[C@@H]2CC[C@H]21)C[C@@]1(CCCc2cc(Cl)ccc21)CO3 [Example 44] |  | 0.1 | 376 |
| CO[C@H]1/C=C/CCC[S@@](=O)(NC(=O)CCc2ccon2)=NC(=O)c2ccc3c(c2)N(C[C@@H]2CC[C@H]21)C[C@@]1(CCCc2cc(Cl)ccc21)CO3 [Example 58] |  | 0.2 | 664 |
| CO[C@H]1/C=C/CCC[S@@](=O)(NC(=O)CCn2ccc(C)n2)=NC(=O)c2ccc3c(c2)N(C[C@@H]2CC[C@H]21)C[C@@]1(CCCc2cc(Cl)ccc21)CO3 [Example 59] |  | 0.1 | 874 |
| CO[C@H]1/C=C/CCC[S@@](=O)(NC(=O)NC(C)(C)C(F)(F)F)=NC(=O)c2ccc3c(c2)N(C[C@@H]2CC[C@H]21)C[C@@]1(CCCc2cc(Cl)ccc21)CO3 [Example 34] |  | 2 | 3350 |

| Structure (SMILES) | EC50 (SKBR3 cells; 72 hours) [nM] | IC50 [1] [nM] | EC50 (SKBR3 cells; Homo sapiens, SK-BR-3, 72 h) [nM] |
| --- | --- | --- | --- |
| CO[C@H]1/C=C/C[C@H](C)C[S@@](=O)(NC(=O)c2cc(CN3CCN(C4COC4)CC3)n(C)c2)=NC(=O)c2ccc3c(c2)N(C[C@@H]2CC[C@H]21)C[C@@]1(CCCc2cc(Cl)ccc21)CO3 [Example 309] |  | 0.029 | 10.5 |
| COc1nn(C)cc1C(=O)N[S@@]1(=O)=NC(=O)c2ccc3c(c2)N(C[C@@H]2CC[C@H]2[C@@H](OC)/C=C/[C@H](S(=O)(=O)c2ccc(C)cc2)[C@H](C)C1)C[C@@]1(CCCc2cc(Cl)ccc21)CO3 [Example 377] | 34 | 0.106 |  |
| CO[C@H]1/C=C/CCC[S@@](=O)(NC(=O)NC(C)C)=NC(=O)c2ccc3c(c2)N(C[C@@H]2CC[C@H]21)C[C@@]1(CCCc2cc(Cl)ccc21)CO3 [Example 19] |  | 1.1 | 1080 |
| CO[C@H]1/C=C/CCC[S@@](=O)(NC(=O)COc2ccnn2C)=NC(=O)c2ccc3c(c2)N(C[C@@H]2CC[C@H]21)C[C@@]1(CCCc2cc(Cl)ccc21)CO3 [Example 100] |  | 0.2 | 2260 |
| CO[C@H]1/C=C/C[C@H](C)C[S@@](=O)(NC(=O)N2CC3(COCCO3)C2)=NC(=O)c2ccc3c(c2)N(C[C@@H]2CC[C@H]21)C[C@@]1(CCCc2cc(Cl)ccc21)CO3 [Example 248] |  | 0.042 | 55.3 |
| CO[C@H]1/C=C/C[C@H](C)C[S@@](=O)(NC(=O)COC2(C)CCOCC2)=NC(=O)c2ccc3c(c2)N(C[C@@H]2CC[C@H]21)C[C@@]1(CCCc2cc(Cl)ccc21)CO3 [Example 124] |  | 0.066 | 95.8 |
| COc1nn(C)cc1C(=O)N[S@@]1(=O)=NC(=O)c2ccc3c(c2)N(C[C@@H]2CC[C@H]2[C@@H](OC)/C=C/[C@H](OCCN(C)C)[C@H](C)C1)C[C@@]1(CCCc2cc(Cl)ccc21)CO3 [Example 403] |  | 0.059 | 13.8 |
| CO[C@H]1/C=C/C[C@H](C)C[S@@](=O)(NC(=O)c2cc3n(c2)C[C@H](C)OC3)=NC(=O)c2ccc3c(c2)N(C[C@@H]2CC[C@H]21)C[C@@]1(CCCc2cc(Cl)ccc21)CO3 [Example 167] |  | 0.141 | 58.6 |
| CO[C@H]1/C=C/C[C@H](C)C[S@@](=O)(NC(=O)c2cc3n(n2)CCCO3)=NC(=O)c2ccc3c(c2)N(C[C@@H]2CC[C@H]21)C[C@@]1(CCCc2cc(Cl)ccc21)CO3 [Example 197] |  | 0.041 | 130 |
| CO[C@H]1/C=C/C[C@H](C)C[S@@](=O)(NC(=O)N[C@H]2C[C@@H]2c2cnn(C)c2)=NC(=O)c2ccc3c(c2)N(C[C@@H]2CC[C@H]21)C[C@@]1(CCCc2cc(Cl)ccc21)CO3 (single isomer, unassigned) [Example 184] | 47.2 | 0.108 |  |
| COc1nn(C)cc1C(=O)N[S@@]1(=O)=NC(=O)c2ccc3c(c2)N(C[C@@H]2CC[C@H]2[C@@H](OC)/C=C/[C@H](OC(C)=O)[C@H](C)C1)C[C@@]1(CCCc2cc(Cl)ccc21)CO3 [Example 393] |  | 0.062 | 33.4 |
| CO[C@H]1/C=C/C[C@H](C)C[S@@](=O)(NC(=O)N[C@@H]2C[C@H]2C)=NC(=O)c2ccc3c(c2)N(C[C@@H]2CC[C@H]21)C[C@@]1(CCCc2cc(Cl)ccc21)CO3 [Example 433] |  | 0.133 | 395 |
| CO[C@H]1/C=C/C[C@H](C)C[S@@](=O)(NC(=O)N[C@H]2C[C@H]2C)=NC(=O)c2ccc3c(c2)N(C[C@@H]2CC[C@H]21)C[C@@]1(CCCc2cc(Cl)ccc21)CO3 [Example 159] |  | 0.087 | 144 |
| COC(=O)N1CCN(C(=O)N[S@@]2(=O)=NC(=O)c3ccc4c(c3)N(C[C@@H]3CC[C@H]3[C@@H](OC)/C=C/C[C@H](C)C2)C[C@@]2(CCCc3cc(Cl)ccc32)CO4)CC1 [Example 245] |  | 0.066 | 60.7 |
| CO[C@H]1/C=C/C[C@H](C)C[S@@](=O)(NC(=O)N2CC(OC(=O)N3CCOCC3)C2)=NC(=O)c2ccc3c(c2)N(C[C@@H]2CC[C@H]21)C[C@@]1(CCCc2cc(Cl)ccc21)CO3 [Example 387] |  | 0.102 | 162 |
| CO[C@H]1/C=C/C[C@H](C)C[S@@](=O)(NC(=O)N[C@H]2C[C@](C)(OC)C2)=NC(=O)c2ccc3c(c2)N(C[C@@H]2CC[C@H]21)C[C@@]1(CCCc2cc(Cl)ccc21)CO3 [Example 192] |  | 0.054 | 39.7 |
| COC[C@H]1Cn2cc(C(=O)N[S@@]3(=O)=NC(=O)c4ccc5c(c4)N(C[C@@H]4CC[C@H]4[C@@H](O)/C=C/C[C@H](C)[C@H]3C)C[C@@]3(CCCc4cc(Cl)ccc43)CO5)cc2CO1 [Example 344] |  | 0.049 | 18.5 |
| CO[C@H]1/C=C/C[C@H](C)C[S@@](=O)(NC(=O)N2CCN(C(=O)OC(C)(C)C)[C@H](C)C2)=NC(=O)c2ccc3c(c2)N(C[C@@H]2CC[C@H]21)C[C@@]1(CCCc2cc(Cl)ccc21)CO3 [Example 382] |  | 1.4 | 562 |
